Source: patent publication US20190022091A1, “METHOD OF TREATMENT FOR MENTAL DISORDERS” (SUMITOMO DAINIPPON PHARMA CO., LTD., priority 2010, published 2019)
Counter-ions that a name gives are not always drawn.

Legend:
common marmosets = assay: ORD test (object retrieval with detour test) in marmosets; format: in vivo, common marmoset; details: for variation of the correct % of the ORD test (difficult task): single oral administration, test 2 hours after administration vs before, FIG. 2-6
Procedure: ORD test (object retrieval with detour test) is already reported as a method for evaluating executive function (attention function/impulsiveness) in primates.
Male and female common marmosets having body weights of 250-450 g were used. Haloperidol, clozapine, olanzapine, risperidone, and lurasidone hydrochloride were separately suspended in 0.5% methylcellulose (MC), and then each suspension was orally administered in a dose of 5 mL/kg to the marmosets. On the other hand, L-745,870 which is a D4 antagonist, and Ro 10-5824 which is a D4 agonist were separately dissolved in saline, and then each solution was intramuscularly administered to the femoris area in a dose of 0.5 mL/kg.
According to the method described in the literature (Psychopharmacology (2006) 196: 643-648) which was partially modified, the ORD test was carried out as follows (see FIG. 1).
In each of the boxes, 0.3-0.5 g of Baumkuchen as a food reward is placed at the point of each triangle in FIG. 1. The marmoset can reach out from the cage (shown as dotted line region) to obtain the reward placed in the acrylic box. FIG. 1 is a view from the directly above. Amongst the situations between each direction of the box and each position of the reward, 5 patterns (line of sight, left outside, left inside, right outside, and right inside) are defined as “easy task”, and the other 2 patterns (left deep, and right deep) are defined as “difficult task”. It is recorded as “correct” when the test animal can obtain the reward in one trial, while it is recorded as “incorrect” when the animal can obtain the reward in the second trial or later.
The ORD test is carried out in the order described in the following table without any interval between each trial, which is referred to as “one series”. The marmoset is made to be trained with the one series once a day.
The marmosets were trained with the ORD test at least 10 times, and then the trained marmosets were used in the following main test.
The main ORD test was carried out as follows.
(1) The ORD test is carried out before administering each test drug (former value). Hereinafter, the ORD test is done in one series containing the 17 trials corresponding to the above-mentioned training.
(2) Two hours after administering each test drug, the same ORD test is carried out again (latter value). In case of the combined administration, the first drug (lurasidone hydrochloride) is administered; one hour later, the second drug (the D4 antagonist or D agonist) is administered; and then the ORD test is done one hour after the second drug is administered.
(3) The variation of correct % in the Difficult task is calculated according to the following formula in order to evaluate the effect of each drug. For example, in case that the “correct count” in the before-administration test (former value) is 3 and the “correct count” in the after-administration test (latter value) is 5, the “correct %” is calculated to rise in 25% (=(5-3)/8×100%) based on the fact that the trial count of the difficult task in each series is 8.
The variation of the correct %={the difference between the both correct counts in the difficult task (latter value−former value)}/8×100
(4) The amount of Baumkuchen is 0.5 g×17=8.5 g in one series. The marmoset can be tested at most 2 sets per day, i.e. it has been confirmed that the marmoset can take at most 17 g of Baumkuchen per day, but, all the test marmosets cannot be satisfied with 17 g of Baumkuchen.
(5) In case that a marmoset treated with the drug is used again, the marmoset is given in 2 week-drug-holidays, and before the test it is confirmed that the previous medication will not affect the test.
(6) 5 to 6 marmosets were used per one test group. When a marmoset (s) suffered from vomiting or cataleptic akinesia induced by the drug and then the ORD test with the marmoset (s) could not be done, the data of the marmoset(s) were excluded. […]

histamine H1 = histamine H1 (Homo sapiens, UniProt P35367); details: cited from earlier work
dopamine D2 = dopamine D2 (Homo sapiens, UniProt P14416); details: cited from earlier work
5-HT2A = 5-HT2A (Homo sapiens, UniProt P28223); details: cited from earlier work
5-HT7 = 5-HT7 (Homo sapiens, UniProt P34969); details: cited from earlier work
serotonin 5-HT1A = biological target: T1, serotonin 5-HT1A (Homo sapiens, UniProt P08908); details: cited from earlier work
T1 sequence (P08908 1-422): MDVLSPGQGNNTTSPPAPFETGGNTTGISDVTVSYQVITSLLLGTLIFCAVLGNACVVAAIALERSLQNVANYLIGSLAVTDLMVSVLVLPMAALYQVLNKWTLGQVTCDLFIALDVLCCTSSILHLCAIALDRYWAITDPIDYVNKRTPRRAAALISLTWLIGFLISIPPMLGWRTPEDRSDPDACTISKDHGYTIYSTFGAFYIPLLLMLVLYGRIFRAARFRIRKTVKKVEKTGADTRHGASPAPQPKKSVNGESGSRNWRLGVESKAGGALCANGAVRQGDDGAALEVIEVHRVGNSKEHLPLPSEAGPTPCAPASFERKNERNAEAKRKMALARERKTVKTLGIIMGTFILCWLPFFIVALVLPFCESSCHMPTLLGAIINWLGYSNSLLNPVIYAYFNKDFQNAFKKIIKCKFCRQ

[1] = biological target: T2, noradrenaline α2c receptors (Homo sapiens, UniProt P18825); details: cited from earlier work
T2 sequence (P18825 1-462): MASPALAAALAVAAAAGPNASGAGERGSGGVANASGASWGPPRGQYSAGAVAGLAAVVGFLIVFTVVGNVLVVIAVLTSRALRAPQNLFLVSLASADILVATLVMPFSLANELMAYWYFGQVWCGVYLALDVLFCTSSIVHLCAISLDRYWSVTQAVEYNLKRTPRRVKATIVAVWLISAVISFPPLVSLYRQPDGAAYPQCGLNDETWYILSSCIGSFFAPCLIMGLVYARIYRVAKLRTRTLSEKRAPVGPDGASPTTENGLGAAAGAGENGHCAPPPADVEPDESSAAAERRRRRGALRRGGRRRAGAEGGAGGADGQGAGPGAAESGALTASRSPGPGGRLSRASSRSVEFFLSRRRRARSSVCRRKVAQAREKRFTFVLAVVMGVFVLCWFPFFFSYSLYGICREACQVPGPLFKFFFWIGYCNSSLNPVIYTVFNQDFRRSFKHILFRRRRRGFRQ

muscarinic M1 receptors = biological target: T3, muscarinic M1 receptors (Homo sapiens, UniProt P11229); details: cited from earlier work
T3 sequence (P11229 1-460): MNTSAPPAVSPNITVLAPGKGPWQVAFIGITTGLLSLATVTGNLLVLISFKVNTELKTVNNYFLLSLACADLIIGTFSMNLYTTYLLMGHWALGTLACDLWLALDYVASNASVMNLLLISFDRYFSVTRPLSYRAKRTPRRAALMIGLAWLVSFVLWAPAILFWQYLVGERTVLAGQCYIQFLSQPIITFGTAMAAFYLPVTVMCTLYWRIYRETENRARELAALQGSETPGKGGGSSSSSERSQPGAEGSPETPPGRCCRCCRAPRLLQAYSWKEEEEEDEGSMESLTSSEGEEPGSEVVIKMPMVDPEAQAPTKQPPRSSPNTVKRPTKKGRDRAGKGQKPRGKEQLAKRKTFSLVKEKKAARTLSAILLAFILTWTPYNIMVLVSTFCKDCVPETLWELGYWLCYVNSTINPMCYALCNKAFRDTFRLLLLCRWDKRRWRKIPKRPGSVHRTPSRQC

SHRSP rats = assay: Y-maze test with juvenile SHRSP rats; format: in vivo, rat; details: for Total Arm Entries mean ± SE / % of Alternation Behavior mean ± SE: SHRSP; for Total Arm Entries mean ± SE: 8 minute session; for % of Alternation Behavior mean ± SE: 30 minutes before evaluation
Text: According to the Y-maze test with juvenile stroke-prone spontaneously hypertensive rats (SHRSP), it is possible to evaluate the effect of lurasidone hydrochloride on attention function with spontaneous Alternation Behavior as an index of attention or concentration (Behav Brain Funct. 2005 Jul. 15; 1:9). Moreover, the effects of lurasidone hydrochloride on hyperactivity, which is one of core symptoms in ADHD, can be confirmed by the total number of the Arm Entries in a Y-maze test.
For the estimation of inattentive behavior, male juvenile SHRSP rats as an ADHD model and WKY rats as a reference (4 weeks old, n=8-10/group) are used. These animals are commercially available from Charles River Laboratories Japan, inc. or Hoshino Laboratory animals, inc. Lurasidone hydrochloride (e.g. 0.01, 0.03, 0.1, 0.3, 1, 3 and 10 mg/kg; produced by Dainippon Sumitomo Pharma Co., Ltd.) is dissolved in 0.5% methylcellulose and 0.2% Tween 80, and is administrated intraperitoneally in a volume of 1 ml/kg, 30 minutes before the evaluation.
The method of Y-maze test was already reported elsewhere (Behav Pharmacol. 2002 February; 13(1):1-13). The “Arm Entry” means the entry of all four paws into one arm. The “Alternation Behavior”, which is actual alternations, means the consecutive Arm Entries into three different arms. The test is carried out for 8 minutes in one session and the total number that a rat performs the Arm Entry is counted. The “Maximum Alternations” means the total number of the Arm Entries minus two. An index of attention is calculated as a percentage of the Alternation Behavior, as described below.
A percentage of Alternation Behavior=(the total number of the Alternation Behavior)/(the Maximum Alternations)×100

Chain of dopamine D2 (P14416 whole entry): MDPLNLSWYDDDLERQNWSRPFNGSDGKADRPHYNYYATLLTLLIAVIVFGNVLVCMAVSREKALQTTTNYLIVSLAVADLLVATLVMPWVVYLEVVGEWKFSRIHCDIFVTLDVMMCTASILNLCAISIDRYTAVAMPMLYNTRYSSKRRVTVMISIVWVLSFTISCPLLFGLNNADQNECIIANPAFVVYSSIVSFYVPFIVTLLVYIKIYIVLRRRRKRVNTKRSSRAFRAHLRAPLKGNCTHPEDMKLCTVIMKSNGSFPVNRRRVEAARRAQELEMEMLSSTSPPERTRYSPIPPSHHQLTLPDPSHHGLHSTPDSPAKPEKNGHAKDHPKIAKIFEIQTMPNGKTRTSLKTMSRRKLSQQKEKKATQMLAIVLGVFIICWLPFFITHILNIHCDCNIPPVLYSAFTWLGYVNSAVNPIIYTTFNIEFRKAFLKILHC
Chain of 5-HT7 (P34969 whole entry, species assumed): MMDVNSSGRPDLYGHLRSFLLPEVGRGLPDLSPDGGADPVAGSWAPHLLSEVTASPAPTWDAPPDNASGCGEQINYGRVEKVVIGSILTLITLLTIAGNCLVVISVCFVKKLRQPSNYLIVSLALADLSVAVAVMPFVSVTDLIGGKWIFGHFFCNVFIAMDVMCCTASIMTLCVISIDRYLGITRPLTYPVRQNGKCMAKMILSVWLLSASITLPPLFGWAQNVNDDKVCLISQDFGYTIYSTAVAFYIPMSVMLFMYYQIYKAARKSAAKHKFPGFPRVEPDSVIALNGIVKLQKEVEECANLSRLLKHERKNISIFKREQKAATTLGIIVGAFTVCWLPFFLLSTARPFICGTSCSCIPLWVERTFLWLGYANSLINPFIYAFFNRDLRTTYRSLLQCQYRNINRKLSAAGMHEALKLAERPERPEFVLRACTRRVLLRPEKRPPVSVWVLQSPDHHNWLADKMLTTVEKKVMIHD
Chain of 5-HT2A (P28223 whole entry, species assumed): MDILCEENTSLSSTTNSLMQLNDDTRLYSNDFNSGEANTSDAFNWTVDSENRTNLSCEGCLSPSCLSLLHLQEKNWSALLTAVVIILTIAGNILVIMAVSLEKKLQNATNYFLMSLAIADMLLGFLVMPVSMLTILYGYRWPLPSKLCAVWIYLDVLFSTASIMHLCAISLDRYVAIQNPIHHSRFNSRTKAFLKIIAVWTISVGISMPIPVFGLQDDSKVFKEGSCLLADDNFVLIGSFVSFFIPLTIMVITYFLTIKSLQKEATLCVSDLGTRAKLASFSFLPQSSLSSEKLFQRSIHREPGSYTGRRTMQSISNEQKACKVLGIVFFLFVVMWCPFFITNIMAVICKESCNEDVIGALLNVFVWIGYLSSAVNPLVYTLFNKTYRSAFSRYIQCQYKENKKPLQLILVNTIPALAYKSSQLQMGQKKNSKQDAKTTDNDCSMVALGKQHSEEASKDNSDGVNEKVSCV
Chain of histamine H1 (P35367 whole entry): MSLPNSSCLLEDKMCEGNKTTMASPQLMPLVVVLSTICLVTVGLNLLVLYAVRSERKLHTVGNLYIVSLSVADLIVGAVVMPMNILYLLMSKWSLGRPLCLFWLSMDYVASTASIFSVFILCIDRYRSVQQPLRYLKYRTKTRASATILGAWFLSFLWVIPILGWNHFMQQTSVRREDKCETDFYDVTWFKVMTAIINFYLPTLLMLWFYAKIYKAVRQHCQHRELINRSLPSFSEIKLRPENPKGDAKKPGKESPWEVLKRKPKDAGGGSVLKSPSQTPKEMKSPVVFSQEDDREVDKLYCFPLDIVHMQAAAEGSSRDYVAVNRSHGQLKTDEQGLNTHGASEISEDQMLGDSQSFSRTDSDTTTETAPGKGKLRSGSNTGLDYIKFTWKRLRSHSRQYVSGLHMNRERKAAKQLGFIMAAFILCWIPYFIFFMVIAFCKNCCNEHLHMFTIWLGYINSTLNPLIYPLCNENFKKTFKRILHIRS

For Clc1ccc(N2CCN(Cc3c[nH]c4ncccc34)CC2)cc1 [L-745,870], the “correct % of the ORD test” value (common marmosets; L-745,870 3 mg/kg i.m. combined with lurasidone hydrochloride 10 mg/kg p.o., FIG. 7) was “decreased the correct % which was increased by the administration of lurasidone hydrochloride” and the ORD score (common marmosets; single intramuscular administration, 10 mg/kg, FIG. 7) was “had no effects on the ORD score”.
In the case of O=C1[C@@H]2[C@H]3CC[C@H](C3)[C@@H]2C(=O)N1C[C@@H]1CCCC[C@H]1CN1CCN(c2nsc3ccccc23)CC1 [Lurasidone, (3aR, 4S, 7R, 7aS)-2-{1(1R,2R)-2-(4-(1,2-benzisothiazol-3-yl)piperazin-1-yl-methyl]cyclohexylmethyl}hexahydro-4,7-methano-2H-isoindole-1,3-dione], the affinity (histamine H1) is given as “minimal to no affinity”, the affinity (dopamine D2) is given as “high affinity” and the affinity (5-HT2A) is given as “high affinity”. For the same compound, the affinity (5-HT7) was “high affinity”, the affinity (serotonin 5-HT1A) was “high affinity” and the affinity [1] was “high affinity”. For the same compound, the affinity (muscarinic M1 receptors) was “minimal to no affinity”.
With O=C(CCCN1CCC(O)(c2ccc(Cl)cc2)CC1)c1ccc(F)cc1 [haloperidol] the “variation of the correct % of the ORD test (difficult task)” value (common marmosets) was “decreased the correct % of the ORD test in a dose-dependent manner”.
For O=C1[C@@H]2[C@H]3CC[C@H](C3)[C@@H]2C(=O)N1C[C@@H]1CCCC[C@H]1CN1CCN(c2nsc3ccccc23)CC1 [lurasidone hydrochloride], the “Total Arm Entries mean ± SE” value (SHRSP rats; 0.1 mg/kg i.p.) was 24 ± 1, the “% of Alternation Behavior mean ± SE” value (SHRSP rats; 0.1 mg/kg i.p.) was 70 ± 5% and the “Total Arm Entries mean ± SE” value (SHRSP rats; 0.3 mg/kg i.p., P < 0.05) was 22 ± 2. For the same compound, the “% of Alternation Behavior mean ± SE” value (SHRSP rats; 0.3 mg/kg i.p., P < 0.05) was 75 ± 2 %, the “Total Arm Entries mean ± SE” value (SHRSP rats; 1.0 mg/kg i.p., P < 0.05) was 21 ± 1 and the “% of Alternation Behavior mean ± SE” value (SHRSP rats; 1.0 mg/kg i.p.) was 72 ± 2%. For the same compound, the “Alternation Behavior (in words)” value (SHRSP rats; SHRSP, 0.1, 0.3 or 1.0 mg/kg, significant at 0.3 mg/kg (p=0.0124)) was “the Alternation Behavior was improved”, the “number of total Arm Entries (in words)” value (SHRSP rats; SHRSP, 0.1, 0.3 or 1.0 mg/kg, significant at 0.3 (p=0.0096) and 1 (p=0.0047) mg/kg) was “showed the decreased number of total Arm Entries” and the ORD score (common marmosets; lurasidone hydrochloride 3 mg/kg p.o. combined with Ro 10-5824 0.3 mg/kg i.m., FIG. 8) was “the ORD score was significantly increased”. The “correct % of the ORD test” value (common marmosets; lurasidone hydrochloride alone, 3 mg/kg p.o.) was “had no effects on the correct %” and the “variation of the correct % of the ORD test (difficult task)” value (common marmosets) was “increased the correct % of the ORD test in a dose-dependent manner”.
In the case of Cc1nc2n(c(=O)c1CCN1CCC(c3noc4cc(F)ccc34)CC1)CCCC2 [risperidone], the “variation of the correct % of the ORD test (difficult task)” value (common marmosets) was “decreased the correct % of the ORD test in a dose-dependent manner”.
With Cc1ncc(CN2CC=C(c3ccccc3)CC2)c(N)n1 [Ro 10-5824, 2-Methyl-5-(4-phenyl-1,2,3,6-tetrahydropyridin-1-yl-methyl)pyrimidine-4-amine] the “correct % of the ORD test” value (common marmosets; Ro 10-5824 alone, 0.3 mg/kg i.m.) was “had no effects on the correct %” and the ORD score (common marmosets; single administration i.m., dose series, FIG. 8) was “increased the ORD score in a dose dependent manner”.
